Measured values: ChEMBL document CHEMBL5154646, “Structure-guided optimization of 1H-imidazole-2-carboxylic acid derivatives affording potent VIM-Type metallo-β-lactamase inhibitors” (Eur J Med Chem, 2022)
The source made the active and inactive calls. The rule behind the calls is not given here.

Assays:
[1] = system: Escherichia coli; experiment: Potentiation of meropenem-induced antibacterial activity against Escherichia coli C1580 expressing VIM-2 assessed as fold reduction in meropenem MIC at 10 ug/ml incubated for 18 to 20 hrs by CLSI based broth microtiter dilution method; assay type: functional; details: dose 10 µg/ml; time 18-20 hrs
[2] = system: Escherichia coli; experiment: Potentiation of meropenem-induced antibacterial activity against Escherichia coli C1541 expressing IMP-1 assessed as fold reduction in meropenem MIC at 10 ug/ml incubated for 18 to 20 hrs by CLSI based broth microtiter dilution method; assay type: functional; details: dose 10 µg/ml; time 18-20 hrs
[3] = Toxicity in ICR mouse assessed as change in behavior at 500 to 2000 mg/kg, ip administered for 14 days; assay type: organism-based; details: in vivo, 336 h, dose 500-2000 mg/kg, time 14 day
[4] = Toxicity in ICR mouse assessed as mortality at 500 to 2000 mg/kg, ip administered for 14 days; assay type: organism-based; details: in vivo, 336 h, dose 500-2000 mg/kg, time 14 day
[5] = Toxicity in ICR mouse assessed as effect on histological architecture of liver at 500 to 2000 mg/kg, ip administered for 14 days by hematoxylin and eosin staining based histopathological assay; assay type: organism-based; details: in vivo, 336 h, dose 500-2000 mg/kg, time 14 day
[6] = Inhibition of bacterial VIM-2 (27 to 266 residues) expressed in Escherichia coli Transetta (DE3) using FC-5 as substrate preincubated with enzyme for 10 mins followed by substrate addition by fluorescence based analysis; set-up: species or system Bacteria
[7] = system: Escherichia coli; experiment: Potentiation of meropenem-induced antibacterial activity against Escherichia coli C1580 expressing VIM-2 assessed as meropenem MIC at 10 ug/ml incubated for 18 to 20 hrs by CLSI based broth microtiter dilution method (reference value: 32 ug/ml); assay type: functional; details: dose 10 µg/ml, time 18-20 hrs
[8] = Inhibition of bacterial recombinant full length C-terminal-TEV-His6-tagged VIM-1 expressed in Escherichia coli Transetta using FC-5 as substrate preincubated with enzyme for 10 mins followed by substrate addition by fluorescence based analysis; set-up: species or system Bacteria
[9] = Inhibition of bacterial recombinant full length N-terminal-TEV-His6-tagged VIM-5 expressed in Escherichia coli Transetta using FC-5 as substrate preincubated with enzyme for 10 mins followed by substrate addition by fluorescence based analysis; set-up: species or system Bacteria
[10] = Inhibition of bacterial NDM-1 (1 to 270 residues) expressed in Escherichia coli Transetta (DE3) using FC-5 as substrate preincubated with enzyme for 10 mins followed by substrate addition by fluorescence based analysis; set-up: species or system Bacteria
[11] = Inhibition of bacterial IMP-1 (1 to 246 residues) expressed in Escherichia coli Transetta (DE3) using FC-5 as substrate preincubated with enzyme for 10 mins followed by substrate addition by fluorescence based analysis; set-up: species or system Bacteria
[12] = system: Escherichia coli; experiment: Potentiation of meropenem-induced antibacterial activity against Escherichia coli C1541 expressing VIM-2 assessed as meropenem MIC at 10 ug/ml incubated for 18 to 20 hrs by CLSI based broth microtiter dilution method (reference value: 16 ug/ml); assay type: functional; details: dose 10 µg/ml, time 18-20 hrs
[13] = system: Escherichia coli; experiment: Potentiation of meropenem-induced antibacterial activity against Escherichia coli C1542 expressing VIM-2 assessed as meropenem MIC at 10 ug/ml incubated for 18 to 20 hrs by CLSI based broth microtiter dilution method (reference value: 16 ug/ml); assay type: functional; details: dose 10 µg/ml, time 18-20 hrs
[14] = system: Escherichia coli; experiment: Potentiation of meropenem-induced antibacterial activity against Escherichia coli C1541 expressing IMP-1 assessed as meropenem MIC at 10 ug/ml incubated for 18 to 20 hrs by broth microtiter dilution method (reference value: 32 ug/ml); assay type: functional; details: dose 10 µg/ml, time 18-20 hrs
[15] = Toxicity in ICR mouse assessed as effect on histological architecture of heart at 500 to 2000 mg/kg, ip administered for 14 days by hematoxylin and eosin staining based histopathological assay; assay type: organism-based; details: in vivo, 336 h, dose 500-2000 mg/kg, time 14 day
[16] = system: Pseudomonas aeruginosa; experiment: Potentiation of meropenem-induced antibacterial activity against Pseudomonas aeruginosa W35 expressing VIM-2 assessed as fold reduction meropenem MIC at 10 ug/ml incubated for 18 to 20 hrs in presence of meropenem by CLSI based broth microtiter dilution method; assay type: functional; details: dose 10 µg/ml; time 18-20 hrs
[17] = Inhibition of bacterial VIM-2 (27 to 266 residues) expressed in Escherichia coli Transetta (DE3) using FC-5 as substrate preincubated with enzyme for 10 mins followed by substrate addition in presence of 100 uM Zn2+ by fluorescence based analysis; set-up: species or system Bacteria
[18] = system: Escherichia coli; experiment: Bactericidal activity against Escherichia coli C1580 expressing VIM-2 assessed as induction of bacterial ultrastructural changes by measuring breakdown of cell wall with leakage of cellular contents at 20 ug/ml incubated for 1 hr in presence of meropenem by transmission electron microscopy; assay type: functional, organism-based; details: dose 20.0 µg/ml
[19] = system: Pseudomonas aeruginosa; experiment: Potentiation of meropenem-induced antibacterial activity against Pseudomonas aeruginosa W35 expressing VIM-2 assessed as meropenem MIC at 100 ug/ml incubated for 18 to 20 hrs in presence of meropenem by CLSI based broth microtiter dilution method (reference value: 64 ug/ml); assay type: functional; details: dose 100 µg/ml, time 18-20 hrs
[20] = system: Pseudomonas aeruginosa; experiment: Induction of morphological changes in Pseudomonas aeruginosa W35 expressing VIM-2 at 10 ug/ml incubated for 1 hr by transmission electron microscopy; assay type: functional, organism-based; details: dose 10.0 µg/ml
[21] = system: Pseudomonas aeruginosa; experiment: Induction of morphological changes in Pseudomonas aeruginosa W35 expressing VIM-2 assessed as localized swelling, elongation with increased cell permeability at 10 ug/ml incubated for 1 hr in presence of meropenem by transmission electron microscopy; assay type: functional, organism-based; details: dose 10.0 µg/ml
[22] = Toxicity in ip dosed ICR mouse assessed as maximum tolerated dose administered for 14 days; assay type: organism-based; details: in vivo, time 14 day
[23] = Solubility of the compound in water; assay type: physicochemical
[24] = Cmax in Sprague-Dawley rat at 100 mg/kg, ip by UPLC analysis; assay type: ADME, organism-based; set-up: dose 100 mg/kg, route ip; details: in vivo
[25] = Toxicity in ICR mouse assessed as change in body weight at 500 to 2000 mg/kg, ip administered for 14 days; assay type: organism-based; details: in vivo, 336 h, dose 500-2000 mg/kg, time 14 day
[26] = Toxicity in ICR mouse assessed as effect on histological architecture of spleen at 500 to 2000 mg/kg, ip administered for 14 days by hematoxylin and eosin staining based histopathological assay; assay type: organism-based; details: in vivo, 336 h, dose 500-2000 mg/kg, time 14 day
[27] = Toxicity in ICR mouse assessed as effect on histological architecture of lungs at 500 to 2000 mg/kg, ip administered for 14 days by hematoxylin and eosin staining based histopathological assay; assay type: organism-based; details: in vivo, 336 h, dose 500-2000 mg/kg, time 14 day
[28] = system: Escherichia coli; experiment: Potentiation of meropenem-induced antibacterial activity against Escherichia coli C1541 expressing VIM-2 assessed as fold reduction in meropenem MIC at 10 ug/ml incubated for 18 to 20 hrs by CLSI based broth microtiter dilution method; assay type: functional; details: dose 10 µg/ml; time 18-20 hrs
[29] = system: Pseudomonas aeruginosa; experiment: Potentiation of meropenem-induced antibacterial activity against Pseudomonas aeruginosa 5621 expressing VIM-2 assessed as fold reduction in meropenem MIC at 100 ug/ml incubated for 18 to 20 hrs by CLSI based broth microtiter dilution method; assay type: functional; details: dose 100 µg/ml; time 18-20 hrs
[30] = system: Escherichia coli; experiment: Potentiation of meropenem-induced antibacterial activity against Escherichia coli C1542 expressing VIM-2 assessed as fold reduction in meropenem MIC at 10 ug/ml incubated for 18 to 20 hrs by CLSI based broth microtiter dilution method; assay type: functional; details: dose 10 µg/ml; time 18-20 hrs
[31] = system: Pseudomonas aeruginosa; experiment: Potentiation of meropenem-induced antibacterial activity against Pseudomonas aeruginosa W35 expressing VIM-2 assessed as fold reduction in meropenem MIC at 100 ug/ml incubated for 18 to 20 hrs by CLSI based broth microtiter dilution method; assay type: functional; details: dose 100 µg/ml; time 18-20 hrs

Q: Which results are given for `O=C(O)c1nccn1Cc1ccncc1`?
A: fold change (FC) [1]: 32; fold change (FC) [2]: 1; Activity [3]: Non-Toxic; Activity [4]: Non-Toxic; Activity [5]: Non-Toxic; IC50 [6]: 0.56 µM; MIC [7]: 1 µg/mL; IC50 [8]: 29.5 µM; IC50 [9]: 5.78 µM; IC50 [10]: > 300 µM; IC50 [11]: > 300 µM; MIC [12]: < 0.25 µg/mL; MIC [13]: < 0.25 µg/mL; MIC [14]: 32 µg/mL; Activity [15]: Non-Toxic; fold change (FC) [16]: 4; IC50 [17]: 1.75 µM; Activity [18]: Active; MIC [19]: 4 µg/mL; Activity [20]: Active; Activity [21]: Active; MTD at 336 h [22]: ≤ 2000 mg/kg; solubility [23]: > 20 mg/mL; Cmax [24]: 143 µg/mL; Activity [25]: Non-Toxic; Activity [26]: Non-Toxic; Activity [27]: Non-Toxic; fold change (FC) [28]: >64; fold change (FC) [29]: 2; fold change (FC) [30]: >64; fold change (FC) [31]: 16
